SMILES strings stand for the structures.

The values below come from patent US9908848B2, “Amide derivatives of lactam based N-acylethanolamine acid amidase (NAAA) inhibitors” (The Regents of the University of California, priority 2013, dated 2018).

In one experiment the target is T1, r-NAAA (Rattus norvegicus, UniProt Q5KTC7).
T1 construct: Lysosomal NAAA protein preparation was obtained by homogenizing male Sprague-Dawley rat lungs; tissue Charles River; host or cells: male Sprague-Dawley rat lung, soluble lysosomal fraction
T1 sequence (Q5KTC7 34-362): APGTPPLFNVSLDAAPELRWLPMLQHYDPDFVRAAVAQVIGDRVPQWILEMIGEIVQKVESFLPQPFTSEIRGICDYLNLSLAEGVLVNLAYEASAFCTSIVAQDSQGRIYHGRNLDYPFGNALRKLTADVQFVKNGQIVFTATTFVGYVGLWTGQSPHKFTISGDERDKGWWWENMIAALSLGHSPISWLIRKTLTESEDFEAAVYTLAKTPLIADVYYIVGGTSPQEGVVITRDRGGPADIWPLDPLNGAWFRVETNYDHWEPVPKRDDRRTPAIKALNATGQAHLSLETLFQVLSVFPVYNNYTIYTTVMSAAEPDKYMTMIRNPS
Put plainly: UPLC/MS r-NAAA assay. In kind it is biochemical. The conditions noted are these: for r-NAAA UPLC/MS assay (n.a.): @100 μM; for inhibition at 3 µM / inhibition at 30 µM: read-out: r-NAAA UPLC/MS assay % inhib.; for IC50: rat lung lysosomal NAAA preparation. The procedure: Lysosomal NAAA protein preparation was obtained by homogenizing male Sprague-Dawley rat lungs (Charles River) in 20 mM Tris-HCl buffer pH 7.4 containing 0.32M sucrose. Samples were centrifuged at 800×g for 15 min at 4° C. Supernatants were centrifuged at 12,000×g for 30 min at 4° C. Pellets were then resuspended in PBS pH 7.4 and subjected to a freeze/thaw cycle at −80° C. The suspension was finally centrifuged at 105,000 g for 1 h at 4° C. The supernatant was used in enzymatic assays.
NAAA preparations were pre-incubated with various concentrations of test compounds or vehicle control in 100 mM NaH2PO4/Citrate buffer, 1% Triton-X, 3 mM DTT (pH 4.5) for 30 min at 37° C. Samples were incubated with heptadecenoylethanolamide (50 μM, Avanti Polar Lipids) at 37° C. for 30 min. The reaction was terminated by addition of cold methanol containing heptadecanoic acid (NuCheck Prep) as internal standard. Samples were analyzed by UPLC/MS (Acquity, Waters). Heptadecenoic and heptadecanoic acids were eluted on an Acquity UPLC BEH C18 column (50 mm length, 2.1 mm i.d., 1.7 μm pore size, Waters) isocratically at 0.5 mL/min for 1.5 min with a solvent mixture of 95% methanol and 5% H2O, both containing 0.25% Acetic Acid and 5.0 mM ammonium acetate. The column temperature was 40° C. Electrospray ionization was in the negative mode, capillary voltage was 0.5 kV, cone voltage was […], desolvation temperature was 500° C. N2 was used as drying gas at a flow rate of 1000 L/hour and a temperature of 500° C. The [M−H]^− ion was monitored in the selected-ion monitoring mode (m/z values: heptadecenoic acid 267.37, heptadecanoic acid 269.37). Calibration curves were generated using commercial heptadecenoic acid (NuCheck Prep) Inhibition of NAAA activity was calculated as reduction of heptadecenoic acid in the samples compared to vehicle controls. IC50 values were calculated by non-linear regression analysis of log [concentration]/inhibition curves using GraphPad Prism 5 (GraphPad Software Inc., CA—USA) applying a standard slope curve fitting.

The next experiment concerns the target T2, human NAAA (Homo sapiens, UniProt Q02083).
T2 construct: made in house; host or cells: HEK293 cells, stably transfected; soluble fraction after freeze/thaw
T2 sequence (Q02083 29-359): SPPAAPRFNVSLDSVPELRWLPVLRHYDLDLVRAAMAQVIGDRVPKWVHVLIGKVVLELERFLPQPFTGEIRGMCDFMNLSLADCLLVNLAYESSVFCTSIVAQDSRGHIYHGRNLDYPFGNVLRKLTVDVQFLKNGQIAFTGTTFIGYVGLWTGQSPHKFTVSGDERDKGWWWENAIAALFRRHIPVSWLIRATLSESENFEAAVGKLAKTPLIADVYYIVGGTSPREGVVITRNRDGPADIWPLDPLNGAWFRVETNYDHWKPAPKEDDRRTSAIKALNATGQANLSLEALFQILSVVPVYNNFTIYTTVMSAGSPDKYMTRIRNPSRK
Put plainly: Fluorogenic h-NAAA assay. In kind it is biochemical. The conditions noted are these: for IC50: recombinant HEK-hNAAA preparation; for h-NAAA Fluorogenic assay (n.a.): @100 μM. The method, then: Hek293 cells stably transfected with the human NAAA coding sequence cloned from a human spleen cDNA library were used as enzyme source. Recombinant HEK-hNAAA pellets were resuspended in homogenizing buffer, and sonicated. Samples were centrifuged at 800×g for 15 min at 4° C. and the supernatants were ultracentrifuged at 12,000×g for 30 min at 4° C. The pellets were resuspended in PBS pH 7.4 on ice and subjected to a freeze/thaw cycle at −80° C. (two freeze/thaw cycles at −80° C. for Examples 34-37). The suspension was finally centrifuged at 105,000×g for 1 h at 4° C. Protein concentration was measured and samples stored at −80° C. until use.
The assay was run in Optiplate 96-wells black plates, in a total reaction volume of 200 μL. NAAA protein preparation (4.0 μg for Examples except 34-37, which were 20.0 μg) was pre-incubated for 10 min with various concentrations of test compounds or vehicle control (5% DMSO) in 100 mM citrate/phosphate buffer (pH 4.5) containing 3.0 mM DTT, 0.1% Triton X-100, 0.05% BSA, 150 mM NaCl. N-(4-methyl-2-oxo-chromen-7-yl)-hexadecanamide was used as a substrate (5.0 μM) and the reaction carried over for 30 min at 37° C. The samples were then read in a Perkin Elmer Envision plate reader using an excitation wavelength of 360 nm and emission 460 nm. IC50 values were calculated by non-linear regression analysis of log [concentration]/inhibition curves using GraphPad Prism 5 (GraphPad Software Inc., CA—USA) applying a standard slope curve fitting.

[1] abbreviates: read-out: h-NAAA Fluorogenic assay % inhib.

On to `CC1(C(=O)N[C@H]2CNC2=O)CCCCC1` [Example 13, 1-Methyl-N-[(3S)-2-oxoazetidin-3-yl]-cyclohexane-carboxamide], for which the “r-NAAA UPLC/MS assay (n.a.)” value on r-NAAA is reported as “n.a. (n.a. = <10% inhib.@100 μM)”.
As for `O=C(N[C@@H]1CNC1=O)c1ccc(-c2ccccc2)cc1` [Example 2, 4-Phenyl-N-[(3R)-2-oxoazetidin-3-yl]-benzamide], the inhibition at 3 µM on r-NAAA is 10%.
As for `CCCCCCCC(C)(C)C(=O)N[C@H]1CNC1=O` [Example 37, 2,2-dimethyl-N-[(3S)-2-oxoazetidin-3-yl]nonanamide], the IC50 (in general, the point on the concentration scale where inhibition reaches its midpoint) on human NAAA was determined as 758 nM.
On to `O=C(C/C=C/c1ccccc1)N[C@H]1CNC1=O` [Example 15, (E)-N-[(3S)-2-Oxoazetidin-3-yl]-4-phenyl-but-3-enamide], for which the inhibition at 30 µM at r-NAAA amounted to 20%.
In the case of `CCCCCCCCCCC(=O)N[C@H]1CNC1=O` [Example 24, N-[(3S)-2-Oxoazetidin-3-yl]-undecanamide], the concentration for half-maximal inhibition (IC50) at human NAAA stood at 43 nM.
Regarding `CCCc1ccc(CC(=O)N[C@H]2CNC2=O)cc1` [Example 35, N-[(3S)-2-oxoazetidin-3-yl]-2-(4-propylphenyl)acetamide], on human NAAA, the IC50 came to 15600 nM.
Regarding `O=C(N[C@@H]1CNC1=O)c1ccc(OCc2ccccc2)cc1` [Example 12, 4-Benzyloxy-N-[(3R)-2-oxoazetidin-3-yl]-benzamide], at r-NAAA, the inhibition at 3 µM was found to be 10%.
`O=C(CCCCc1ccccc1)N[C@H]1CNC1=O` [Example 25, 5-Phenyl-N-[(3S)-2-oxoazetidin-3-yl]-pentanamide]: the IC50 on human NAAA was found to be 33900 nM.
With `C[C@@H]1NC(=O)[C@H]1NC(=O)CCc1ccc(-c2ccccc2)cc1` [Example 29, N-[(2S,3S)-2-methyl-4-oxo-azetidin-3-yl]-3-(4-phenylphenyl)-propanamide], the inhibition at 50 µM at human NAAA (setting [1]) amounted to 60%.
As to `O=C(CCCc1ccccc1)N[C@H]1CNC1=O` [Example 32, 4-Phenyl-N-[(3S)-2-oxoazetidin-3-yl]-butanamide], at human NAAA, the IC50 worked out at 110000 nM.
`CCCCCCCCC(=O)N[C@@H]1CNC1=O` [Example 4, N-[(3R)-2-Oxoazetidin-3-yl]-nonanamide]: the IC50 on human NAAA came out at 40000 nM.
Consider `CC1(C(=O)N[C@@H]2CNC2=O)CCCCC1` [Example 14, 1-Methyl-N-[(3R)-2-oxoazetidin-3-yl]-cyclohexane-carboxamide], for which the “r-NAAA UPLC/MS assay (n.a.)” value on r-NAAA was “n.a. (n.a. = <10% inhib.@100 μM)”.
With `O=C(N[C@H]1CNC1=O)c1ccc(-c2ccccc2)cc1` [Example 1, 4-Phenyl-N-[(3S)-2-oxoazetidin-3-yl]-benzamide], at r-NAAA, the inhibition at 3 µM is 15%.
In the case of `O=C(CCCOCc1ccccc1)N[C@@H]1CNC1=O` [Example 10, 4-Benzyloxy-N-[(3R)-2-oxoazetidin-3-yl]-butanamide], the inhibition at 30 µM at r-NAAA was 10%.
Turning to `CCCCCCCC(=O)N[C@H]1CNC1=O` [Example 22, N-[(3S)-2-Oxoazetidin-3-yl]-octanamide], the IC50 on human NAAA was determined as 930 nM.
As to `O=C(CCCOCc1ccccc1)N[C@H]1CNC1=O` [Example 9, 4-Benzyloxy-N-[(3S)-2-oxoazetidin-3-yl]-butanamide], the “r-NAAA UPLC/MS assay (n.a.)” value on r-NAAA was “n.a. (n.a. = <10% inhib.@100 μM)”.
As for `O=C(CCCCc1ccccc1)N[C@@H]1CNC1=O` [Example 26, 5-Phenyl-N-[(3R)-2-oxoazetidin-3-yl]-pentanamide], on human NAAA, the “h-NAAA Fluorogenic assay (n.a.)” value is reported as “n.a. (n.a. = <10% inhib.@100 μM)”.
In the case of `O=C(CCc1ccccc1)N[C@H]1CNC1=O` [Example 19, 3-Phenyl-N-[(3S)-2-oxoazetidin-3-yl]-propanamide], the inhibition at 50 µM on human NAAA (setting [1]) was found to be 15%.
For `CCCC[C@H]1CC[C@H](C(=O)N[C@H]2CNC2=O)CC1` [Example 34, (1r,4R)-4-butyl-N—((S)-2-oxoazetidin-3-yl)cyclohexanecarboxamide], on human NAAA, the IC50 worked out at 4020 nM.
For `O=C(CCc1ccccc1)N[C@@H]1CNC1=O` [Example 20, 3-Phenyl-N-[(3R)-2-oxoazetidin-3-yl]-propanamide], on human NAAA, the “h-NAAA Fluorogenic assay (n.a.)” value is “n.a. (n.a. = <10% inhib.@100 μM)”.
On to `O=C(CCCCCC1CCCCC1)N[C@H]1CNC1=O` [Example 17, 6-Cyclohexyl-N-[(3S)-2-oxoazetidin-3-yl]-hexanamide], for which the IC50 on human NAAA was found to be 275 nM; against r-NAAA, 130 nM.
As for `O=C(N[C@H]1CNC1=O)c1ccc(OCc2ccccc2)cc1` [Example 11, 4-Benzyloxy-N-[(3S)-2-oxoazetidin-3-yl]-benzamide], the inhibition at 30 µM at r-NAAA worked out at 10%.
As for `CCCCCCCC(C)C(=O)N[C@H]1CNC1=O` (mixture of isomers) [Example 36, (2R)-2-methyl-N-[(3S)-2-oxoazetidin-3-yl]nonanamide and (2S)-2-methyl-N-[(3S)-2-oxoazetidin-3-yl]nonanamide], the IC50 on human NAAA stood at 220 nM.
As for `CCCCc1ccc(C(=O)N[C@H]2CNC2=O)cc1` [Example 33, 4-Butyl-N-[(3S)-2-oxoazetidin-3-yl]-benzamide], on human NAAA (@ 2.5 μM, read-out: h-NAAA Fluorogenic assay % inhib.), the inhibition at 2.5 µM was determined as 16%.
On r-NAAA, `O=C(CCCCC1CCCCC1)N[C@H]1CNC1=O` [Example 16, 5-Cyclohexyl-N-[(3S)-2-oxoazetidin-3-yl]-pentanamide] displayed an IC50 of 1000 nM.
Consider `CCCCCCCCC(=O)N[C@@H]1C(=O)N[C@H]1C` [Example 28, N-[(2S,3S)-2-methyl-4-oxo-azetidin-3-yl]-nonanamide], for which the IC50 at human NAAA amounted to 380 nM.
On to `CCCCC/C=C\CC(=O)N[C@H]1CNC1=O` [Example 6, (Z)—N-[(3S)-2-Oxoazetidin-3-yl]-non-3-enamide], for which the values for the IC50 on human NAAA and against r-NAAA were 1940 nM and 680 nM, respectively.
As to `O=C(CCCCCc1ccccc1)N[C@H]1CNC1=O` [Example 31, 6-Phenyl-N-[(3S)-2-oxoazetidin-3-yl]-hexanamide], at human NAAA, the IC50 is 13400 nM.
As to `O=C(CCCCCCc1ccccc1)N[C@@H]1CNC1=O` [Example 8, 7-Phenyl-N-[(3R)-2-Oxoazetidin-3-yl]-heptanamide], the inhibition at 3 µM on r-NAAA was determined as 30%.
As to `CCCCCCC(=O)N[C@H]1CNC1=O` [Example 21, N-[(3S)-2-Oxoazetidin-3-yl]-heptanamide], on human NAAA, the IC50 was 7830 nM.
`O=C(CCc1ccc(-c2ccccc2)cc1)N[C@H]1CNC1=O` [Example 18, 3-(4-Phenylphenyl)-N-[(3S)-2-oxoazetidin-3-yl]-propanamide]: the “h-NAAA Fluorogenic assay (n.a.)” value at human NAAA is given as “n.a. (n.a. = <10% inhib.@100 μM)”.
